From US20130287763A1, “COMBINATION THERAPY FOR TREATING CANCER COMPRISING AN IGF-1R INHIBITOR AND AN AKT INHIBITOR” (MERCK SHARP & DOHME CORP., priority 2010, published 2013)
Entries after “also recorded” stand apart in the source; their conditions may differ.

Assays:
[1] = system: SKCO1 (KRASmut) xenograft tumors; experiment: SKCO1 xenograft growth assessment; type: in vivo, mice; details: MK-0646 20 mg/kg i.p. once a week, MK-2206 140 mg/kg p.o. 3-times a week (FIG. 4)
Description: (§1) A suspension of human SKCO1 and SW837 cells (5×10^6) and HT29 (3×10^6) in Matrigel (Cat. #356231, BD Biosciences; 1:1 v/v) were injected subcutaneously into the right flank of 4-6 week old SCID Hairless Outbred (SHO), NOD SCID, or CD-1 nu/nu (Jackson Laboratories) mice, respectively. When tumors reached a size of ˜300 mm3 (Length*Width*Width*0.5), mice were randomized into treatment groups. […] Animals were weighed and tumor volumes were determined by calipering 2 times per week during the study and at termination. Tumor weight was measured and recorded at termination. On day 28 animals were sacrificed by CO2 asphyxiation. […] At time of sacrifice tumors pieces were collected for western blot analysis (snap frozen in liquid nitrogen) and for immunohistochemistry (10% neutral buffered formalin).

IGF-1R signaling pathway = experiment: Western blot analysis of IGF-1R/PI3K pathway activity in xenograft tumor samples; type: in vivo, mice; details: 24 hrs after MK-0646 or 6 hrs after MK-2206 (FIG. 6)
Description: Total protein lysates from cells (˜0.3 million) cultured in 6 well plates were generated by removing the media, rinsing once with PBS and lysing in NP-40 buffer (1% NP-40, 20 MM Tris-HCL (pH8.0), 137 mM NaCl, 10% glycerol, 2 mM EDTA, Mini Complete protease inhibitor, HALT phosphatase Inhibitor cocktail). Samples were western blotted with indicated total or phosphor-specific antibodies followed by a secondary antibody (Cell Signaling Technology, CST) and then incubated with SuperSignal chemiluminescence substrate (Pierce). The blots were then exposed to a Kodak Biomax Light Film. The antibodies against ERK, p-ERK (Thr202/Tyr204), AKT and p-AKT (Ser473), IGF1R13, S6K & P-S6K (T389), IRS1 & P-IRS1 (S302) and actin were obtained from CST. Total IGF1R antibody was obtained from Santa Cruz and GAPDH was obtained from Chemicon. A suspension of human SKCO1 and SW837 cells (5×10^6) and HT29 (3×10^6) in Matrigel (Cat. #356231, BD Biosciences; 1:1 v/v) were injected subcutaneously into the right flank of 4-6 week old SCID Hairless Outbred (SHO), NOD SCID, or CD-1 nu/nu (Jackson Laboratories) mice, respectively. When tumors reached a size of ˜300 mm3 (Length*Width*Width*0.5), mice were randomized into treatment groups. […] Animals were weighed and tumor volumes were determined by calipering 2 times per week during the study and at termination. Tumor weight was measured and recorded at termination. […]

[2] = system: SKCO1 (CRC), HCC70 (breast cancer), H1793 (NSCLC) cells; experiment: Phospho-RTK arrays, cell lines from different cancer types; type: cell-based, human; details: cell type-dependent
Description: All CRC and NSCLC cell lines were obtained from ATCC and maintained in 10% fetal bovine serum, FBS (Hyclone) containing media (DMEM or RPMI; Invitrogen Inc) supplemented with pen-strep (Invitrogen) at 37° C. according to the instructions from ATCC. About 2 million cells were cultured in 10 cm plates and protein lysates were prepared from a sub-confluent culture. 500 ug of protein lysate were incubated with RTK Arrays (R&D bioscience; cat# ARY001) and developed as detailed in the manual. The arrays were probed with HRP-conjugated P-Tyr antibody and then incubated with Super-Signal chemiluminescence substrate (Pierce) and blots were then exposed to a Kodak Biomax Light Film.

[3] = system: SW837 (KRASG12C) xenograft tumors; experiment: SW837 xenograft growth assessment; type: in vivo, mice; details: compared to the vehicle treated group (FIG. 5)
Description: as §1

HT-29 cells [4] = experiment: Phospho-RTK arrays, HT-29 cells; type: cell-based, human
Description: (§2) All CRC and NSCLC cell lines were obtained from ATCC and maintained in 10% fetal bovine serum, FBS (Hyclone) containing media (DMEM or RPMI; Invitrogen Inc) supplemented with pen-strep (Invitrogen) at 37° C. according to the instructions from ATCC.
(§3) About 2 million cells were cultured in 10 cm plates and protein lysates were prepared from a sub-confluent culture. 500 ug of protein lysate were incubated with RTK Arrays (R&D bioscience; cat# ARY001) and developed as detailed in the manual. The arrays were probed with HRP-conjugated P-Tyr antibody and then incubated with Super-Signal chemiluminescence substrate (Pierce) and blots were then exposed to a Kodak Biomax Light Film.

HT-29 cells [5] = experiment: Western blot of HT-29 cells treated with increasing doses of MK-2206; type: cell-based, human; details: MK-2206 0.041-1.11 um, western blot (FIG. 1A)
Description: All CRC and NSCLC cell lines were obtained from ATCC and maintained in 10% fetal bovine serum, FBS (Hyclone) containing media (DMEM or RPMI; Invitrogen Inc) supplemented with pen-strep (Invitrogen) at 37° C. according to the instructions from ATCC. Total protein lysates from cells (˜0.3 million) cultured in 6 well plates were generated by removing the media, rinsing once with PBS and lysing in NP-40 buffer (1% NP-40, 20 MM Tris-HCL (pH8.0), 137 mM NaCl, 10% glycerol, 2 mM EDTA, Mini Complete protease inhibitor, HALT phosphatase Inhibitor cocktail). Samples were western blotted with indicated total or phosphor-specific antibodies followed by a secondary antibody (Cell Signaling Technology, CST) and then incubated with SuperSignal chemiluminescence substrate (Pierce). The blots were then exposed to a Kodak Biomax Light Film. The antibodies against ERK, p-ERK (Thr202/Tyr204), AKT and p-AKT (Ser473), IGF1R13, S6K & P-S6K (T389), IRS1 & P-IRS1 (S302) and actin were obtained from CST. Total IGF1R antibody was obtained from Santa Cruz and GAPDH was obtained from Chemicon.

SW-837 cells = experiment: Phospho-RTK arrays, SW-837 cells; type: cell-based, human; details: SW-837, 20.95 ug/ml MK-0646, 18 hrs (FIG. 3C)
Description: as §2, §3

[6] = HT-29 cells, 1 uM MK-2206, 18 hrs, RTK arrays (FIG. 1B)

Compound | tumor growth inhibition compared to vehicle treated control group [1] | IGF-1R signaling as measured by phosphorylation of IGF-1R (IGF-1R signaling pathway) | RTK activity (Her2) ([2]; MK-2206, 18 hrs, RTK arrays (FIG. 2)) | phosphorylation of RTKs (IGF-1R, IR, cMET, Her2, Her3, EphA2) ([2]; SKCO1 370 nM, HCC70 370 nM, H1793 1 uM MK-2206, 18 hrs (FIG. 2)) | tumor growth inhibition [3] | phosphorylation of IGF-1R (HT-29 cells [4]; [6]) | phosphorylation of IR and cMET (HT-29 cells [4]; [6]) | phosphorylation of AKT (HT-29 cells [5]) | total IGF-1R levels (HT-29 cells [5]) | amount of active cMET and insulin receptor (SW-837 cells) | amount of active cMET and insulin receptor (HT-29 cells [4]; HT-29, 20.95 ug/ml MK-0646, 18 hrs (FIG. 3A))
NC1(c2ccc(-c3nc4ccn5c(=O)[nH]nc5c4cc3-c3ccccc3)cc2)CCC1 [MK-2206, 8-[4-(1-Aminocyclobutyl)phenyl]-9-phenyl[1,2,4]triazolo[3,4-f]-1,6-naphthyridin-3(2H)-one] | significant growth inhibition; also recorded: significantly inhibited tumor growth | feedback activation of IGF-1R signaling | can decrease | increasing the phosphorylation of multiple RTKs | ~30% | increase | observed | diminished in a dose dependent manner | increase in a dose dependent manner | – | –
MK-0646: humanized antibody characterized as binding IGF-1R as well as the IR/IGF-1 hybrid receptor | significant growth inhibition; also recorded: significantly inhibited tumor growth | – | – | – | ~10% | – | – | – | – | reduced | reduced
